Assay results as given in patent publication US20220387433A1, “TYPE V PHOSPHODIESTERASE INHIBITOR COMPOSITIONS, METHODS OF MAKING THEM AND METHODS OF USING THEM IN PREVENTING OR TREATING ELEVATED PULMONARY VASCULAR PRESSURE OR PULMONARY HEMORRHAGES” (American Regent, Inc., priority 2019, published 2022).

Assays:
[1] = system: mature, healthy horses; assay: Twenty-four week (6-month) target animal safety (TAS) study; type: in vivo
Protocol: A twenty-four week (6-month) target animal safety (TAS) study was conducted to evaluate the safety of E-4021 (EIPHISOL®) in mature, healthy horses. The study was designed with 4 treatment groups of eight horses (two geldings, two stallions and four mares) in each group. Treatment groups included a Control (Group I: Isotonic saline at a volume equivalent to the largest volume given in the 5× (Group IV); 1× (Group II: 0.125 mg E4021 per pound body weight); 3× (Group III: 0.375 mg E4021 per pound body weight; and 5× (Group IV: 0.625 mg E4021 per pound body weight). Treatment groups were dosed intravenously alternating between the left and right jugular vein once every 7 days for 25 doses.
Breeds represented in this study included Thoroughbred, Quarter Horse, Paint, Arabian, and Grade. The overall age ranged from 3 to 17 years, with a mean of 7.6±4.49 years. The majority of the horses were Thoroughbred (59.4%).
Physical Examinations and Post-Dose Observations: Post-dose observations were conducted after every treatment to detect any acute abnormalities at 10-, 30-, and 60-minute intervals. […] As all groups (including the controls) recorded this finding (Table I), it is presumed that a factor other than the test article was responsible.

[2] = Pharmacokinetic study, plasma and urine concentrations; type: in vivo, horses
Protocol: A pharmacokinetic (PK) study was conducted in six horses, namely three mares, two geldings and one stallion. The study measured plasma and urine concentrations of E-4021 (EIPHISOL®) after IV administration of 100 mg of E-4021 per horse. Plasma samples were collected pretreatment and then at 10, 20 and 30 minutes and 1, 1.5, 2, 2.5, 3, 3.5, 4, 4.5, 5, 5.5, 6, 8, 12, 17, 24 and 30 hours post administration. […] The mean area under the concentration-time curve extrapolated to infinity (AUC0-∞) was 217±83.5 hr*ng/mL. The mean volume of distribution (V) was 6.06±3.99 L/kg.
Urine was collected for assaying E-4021 during four intervals: (1) a pre-dose sample collected from approximately −24 hours through 0 hours, (2) a 0 hour to 12 hour post-dose sample, (3) a 12 hour to 24 hour post-dose sample, and, (4) a 24 hour to 36 hour-post dose sample. There was wide variability in the concentration of E-4021 measured in urine, with maximum concentration ranging from 130-974 ng/mL. […] E-4021 concentration in urine remained above the quantitation limit (3 ng/mL) for four of the six horses at 36 hours post-dose.

[3] = males in Group II (1×) and Group III (3×)
[4] = males in Group III (3×) and Group IV (5×)

Substance: sodium 1-[6-chloro-4-(3,4-methylenedioxybenzyl)-aminoquinazolin-2-yl]piperidine-4-carboxylate sesquihydrate [E-4021]
- Visual findings ataxia/dragging toes or behavioral/sedation, counted once per horse per group ([1]; 1X, PE Day 0): 6
- Visual findings ataxia/dragging toes or behavioral/sedation, counted once per horse per group ([1]; 1X, PE Day 28): 4
- Visual findings ataxia/dragging toes or behavioral/sedation, counted once per horse per group ([1]; 1X, PE Day 56): 2
- Visual findings ataxia/dragging toes or behavioral/sedation, counted once per horse per group ([1]; 1X, PE Day 84): 1
- Visual findings ataxia/dragging toes or behavioral/sedation, counted once per horse per group ([1]; 1X, PE Day 112): 1
- Visual findings ataxia/dragging toes or behavioral/sedation, counted once per horse per group ([1]; 1X, PE Day 140): 1
- Visual findings ataxia/dragging toes or behavioral/sedation, counted once per horse per group ([1]; 1X, PE Day 168): 1
- Physical examination findings, treatment-related ([1]; 1× and 3×): no major abnormal physical examination findings
- Visual findings ataxia/dragging toes or behavioral/sedation, counted once per horse per group ([1]; 3X, PE Day 0): 2
- Visual findings ataxia/dragging toes or behavioral/sedation, counted once per horse per group ([1]; 3X, PE Day 28): 0
- Visual findings ataxia/dragging toes or behavioral/sedation, counted once per horse per group ([1]; 3X, PE Day 56): 1
- Visual findings ataxia/dragging toes or behavioral/sedation, counted once per horse per group ([1]; 3X, PE Day 84): 0
- Visual findings ataxia/dragging toes or behavioral/sedation, counted once per horse per group ([1]; 3X, PE Day 112): 0
- Visual findings ataxia/dragging toes or behavioral/sedation, counted once per horse per group ([1]; 3X, PE Day 140): 1
- Visual findings ataxia/dragging toes or behavioral/sedation, counted once per horse per group ([1]; 3X, PE Day 168): 0
- Visual findings ataxia/dragging toes or behavioral/sedation, counted once per horse per group ([1]; 5X, PE Day 0): 6
- Visual findings ataxia/dragging toes or behavioral/sedation, counted once per horse per group ([1]; 5X, PE Day 28): 4
- Visual findings ataxia/dragging toes or behavioral/sedation, counted once per horse per group ([1]; 5X, PE Day 56): 3
- Visual findings ataxia/dragging toes or behavioral/sedation, counted once per horse per group ([1]; 5X, PE Day 84): 4
- Visual findings ataxia/dragging toes or behavioral/sedation, counted once per horse per group ([1]; 5X, PE Day 112): 2
- Visual findings ataxia/dragging toes or behavioral/sedation, counted once per horse per group ([1]; 5X, PE Day 140): 2
- Visual findings ataxia/dragging toes or behavioral/sedation, counted once per horse per group ([1]; 5X, PE Day 168): 2
- Blood urea nitrogen (BUN) vs Group I (Control) ([1]; Day 140 for Group II (1×) and Day 154 for Group III (3×)): significantly higher
- MCH vs Group I (Control) ([1]; Group II (1×) and Group IV (5×)): no significant differences
- Direct bilirubin vs Group I (Control) ([1]; Group II (1×), overall): significantly lower
- Erythrocytes vs Group I (Control) ([1]; Group II (1×), overall): significantly lower
- Hematocrit vs Group I (Control) ([1]; Group II (1×), overall): significantly lower
- Hemoglobin vs Group I (Control) ([1]; Group II (1×), overall): significantly lower
- MCHC vs Group I (Control) ([1]; Group II (1×), Days 14, 70, and 154): significantly higher
- Leukocytes vs Group I (Control), group-by-time ([1]; Group II (1×), Days 14 and 154): significantly lower
- Glucose vs Group I (Control) ([1]; Group II (1×), Days 28, 42, 56, 70, and 140): significantly lower
- APTT vs Group I (Control) ([1]; Group II (1×), Days 56, 140, and 168): significantly higher
- Fibrinogen vs Group I (Control) ([1]; Group III (3×), overall): significantly lower
- MCHC vs Group I (Control) ([1]; Group III (3×), Day 0): significantly lower
- MCH vs Group I (Control) ([1]; Group III (3×), Day 56): significantly higher
- APTT vs Group I (Control) ([1]; Group III (3×), Days 28, 56, 98, 140, and 168): significantly higher
- Leukocytes vs Group I (Control), group-by-time ([1]; Group III (3×), Days 84, 98, 112, 140, and 168): significantly higher
- Leukocytes vs Group I (Control), group-by-time ([1]; Group IV (5×)): no significant differences
- APTT vs Group I (Control) ([1]; Group IV (5×), Day 84): significantly lower
- Blood urea nitrogen (BUN) vs Group I (Control) ([1]; Group IV (5×), Days 28, 42, 84, and 112): significantly lower
- Glucose vs Group I (Control) ([1]; Group IV (5×), Days 28, 84, 140, and 168): significantly lower
- APTT vs Group I (Control) ([1]; Group IV (5×), Days 56, 70, and 126): significantly higher
- MCHC vs Group I (Control) ([1]; Group IV (5×), Days 98, 112, and 154): significantly higher
- Physical examination findings at and immediately after dosing ([1]; Group IV (5×), also recorded in controls, not dose related, not considered treatment related): transient locomotion (ataxia/dragging toes), or neurodepressant type effects (behavioral/sedation)
- Microscopic findings at the injection site(s) ([1]; IV jugular once every 7 days for 25 doses, attributed to minor trauma of injection procedure): minimal fibrosis of the dermis or vein, and minimal degeneration and necrosis of the underlying skeletal muscle
- Urinalysis findings ([1]; all groups): did not appear to be any indication of abnormal urinalysis findings
- Bone marrow smears ([1]; control and test-article treated horses, no dose relationship or correlation with decreased platelet counts on Day 168): low incidence of decreased megakaryocytes
- Leukocytes vs Group I (Control), group-by-sex ([1]; female horses in Group III (3×) and Group IV (5×)): significantly higher
- Globulin vs Group I (Control) ([1]; females in Group II (1×)): significantly higher
- Albumin vs Group I (Control) ([1]; females in Group II (1×) and Group III (3×)): significantly lower
- Sorbitol dehydrogenase vs Group I (Control) ([1]; females in Group II (1×) and Group IV (5×)): significantly higher
- Lymphocytes/leukocytes vs control ([1]; females, all treatment groups): no significant differences
- Magnesium vs control ([1]; females, all treatment groups): no significant difference
- Neutrophils/leukocytes vs control ([1]; females, all treatment groups): no significant differences
- Macroscopic findings limited to the injection site ([1]; in vivo): no macroscopic findings
- Microscopic findings: mandibular salivary glands, related to test article ([1]; males given 1× and 3×, limited number examined): no microscopic findings
- Liver to brain weight ratio (%) compared to control males ([1]; males given the 3× dose, p=0.033, small magnitude, no dose response): statistically higher
- Mean liver to body weight ratio (%) compared to control males ([1]; males given the 3× dose, p=0.064, small magnitude, no dose response): statistically higher
- Leukocytes vs Group I (Control), group-by-sex ([1]; males in Group II (1×)): significantly lower
- Albumin vs Group I (Control) [1, 3]: significantly higher
- Sorbitol dehydrogenase vs Group I (Control) [1, 3]: significantly higher
- Globulin vs Group I (Control) [1, 4]: significantly lower
- Lymphocytes/leukocytes vs Group I (Control) [1, 4]: significantly higher
- Magnesium vs Group I (Control) ([1]; males in Group IV (5×)): significantly lower
- Neutrophils/leukocytes vs Group I (Control) ([1]; males in Group IV (5×)): significantly lower
- Testicular changes, relation to dose ([1]; most consistent with spontaneous background findings): did not show evidence of a dose response
- Microscopic findings: testes ([1]; often with mononuclear cell infiltration and/or Leydig cell pigment accumulation, not in the single control male): Minimal seminiferous tubule degeneration
- Adverse event of abdominal colic ([1]; one horse Group II (1×) Day 51, one horse Control Day 54): did not appear to be associated with test article administration
- Macroscopic observations at the end of dosing ([1]; previous trauma, infectious diseases, degenerative/aging changes or euthanasia artifact): attributed to spontaneous background alterations
- Fecal analysis findings ([1]; two horses in Group III (3×) at Day 83, other groups normal): abnormal intestinal mucosa
- Mean clearance (CL) ([2]; IV 100 mg per horse): 19.5 ± 11.5 mL/min/kg
- Mean volume of distribution (V) ([2]; IV 100 mg per horse): 6.06 ± 3.99 L/kg
- Maximum concentration in urine ([2]; IV 100 mg per horse, range over six horses): 130 to 974 ng/mL
- Concentration in urine at 36 hours post-dose ([2]; above quantitation limit for four of the six horses): > 3 ng/mL
- Collection interval of maximum urine concentration ([2]; all six horses): 12-hour post-dose collection
- Mean Tmax ([2]; plasma, IV 100 mg per horse): 0.195 ± 0.020 h
- Mean area under the concentration-time curve extrapolated to infinity (AUC0-∞) ([2]; plasma, IV 100 mg per horse): 217 ± 83.5 ng·h/mL
- Mean elimination half-life (T½) ([2]; plasma, IV 100 mg per horse): 4.42 ± 2.91 h
- Mean maximum concentration (Cmax) ±SD ([2]; plasma, IV 100 mg per horse, six horses): 295 ± 118 ng/mL
